The text below walks through data of patent publication US12559750B2, “Methods and compositions for treatment of polycystic kidney disease” (Regulus Therapeutics Inc., priority 2021, dated 2026).

For one data set, the system named is Swiss:Rjorl male mice. As to the kind of experiment: ICV maximum tolerated dose study for RGLS4326, Study 2. It is filed as in vivo, mouse. The method, then: A second MTD study for RGL4326 by ICV was conducted to assess dose selection for evaluating the compound in disease models (Table 11). In this study, a different mouse strain was evaluated (Swiss:Rjorl male mice, age 5 weeks, sourced from Janvier). Mice were placed under isoflurane anaesthesia (5% for induction and 2% for maintenance, under 100% O2) and given 5 mg/kg s.c. carprofen (Rimadyl®). They were then placed in a stereotaxic frame. A midline sagittal incision was made in the scalp and a hole was drilled in the skull over the left lateral ventricle. A stainless-steel cannula (external diameter 0.51 mm) was placed stereotaxically into the left lateral ventricle at the following coordinates: +0.5 posterior to Bregma, L±0.7 mm, V=−2.7 mm. After a 2-minute delay to allow the brain tissue to slide over the cannula, 4 μL of a solution containing 0.625 mg/mL of RG4326 was slowly infused over 2 minutes. After infusion, the cannula was left in place for a further 5 minutes to prevent backflow of the solution along the cannula track. Mice were given 5 mg/kg s.c. carprofen (Rimadyl®) at 24 and 48 hours, after surgery. Mice were monitored during 3-7 days after surgery (starting 24 h after ICV administration) and their body weight was taken daily to check their health status. For mice monitored over 7 days, body weight was taken on Day 1 and on Day 7 after surgery to check their health status.
In Study 1, 6 mice were injected with 4 μL of a solution at 0.625 mg/mL (2.5 μg total per ICV; Table 10). At the end of anesthesia, the mice remained lying on one side. They were quiet with some periods of scratching during the first hours after surgery. […] In Study 2, four mice were injected with 4 different doses of RGLS4326 (0.75, 1.0, 1.25 and 1.875 mg/mL, volume of 4 μL). One mouse that received the highest dose (1.875 mg/mL, i.e., 7.5 μg/mouse) was found dead around 24 hours after ICV injection. All other mice were in good health, until the end of the pilot study (7 days after administration).

For the next data set, the system named is miR-17. To be noted: mIMCD3, mouse, Normal; value reported by Lee et al., Nat. Commun., 2019; read-out: miR-17 PD-Sig (EC50); cited from earlier work.

As usually defined, the EC50 is the concentration at which the effect is half-maximal.

In the case of “ASGSCMAFCFUFUMUSGS [RGLS4326, reference compound]”, the “toxic effects at 24, 48 or 72 hours” value in the data set with Swiss:Rjorl male mice (ICV 4 μL of 0.625 mg/mL (2.5 μg total), 6 mice) is reported as “No toxic effects were observed”. Besides, the “Dead/Total Mice, Study 2” value in the data set with Swiss:Rjorl male mice (single ICV 2.5 μg) is given as 0/6; with Swiss:Rjorl male mice (single ICV 3 μg, 7-day) it was 0/4; in the data set on Swiss:Rjorl male mice (single ICV 4 μg, 7-day), 0/4; in the data set on Swiss:Rjorl male mice (single ICV 5 μg, 7-day), 0/4; in the data set with Swiss:Rjorl male mice (single ICV 7.5 μg, 7-day), 1/4. In addition, in the data set with Swiss:Rjorl male mice (single ICV, Swiss:Rjorl mouse strain, predicted from Study 2), the MTD is about 4 µg. Further, in the data set with miR-17, the half-maximal effective concentration (EC50) is 77.2 nM.
